The record followed here is patent EP4516309A1, “CRHR1 AGONISTS FOR USE IN THE TREATMENT OF SOCIAL ANXIETY DISORDERS” (Consejo Superior de Investigaciones Cientificas, priority 2023, dated 2025).

One assay addresses T1, excitatory DREADD (Homo sapiens, UniProt P20309, A239G/Y149C).
T1 construct: host or cells: ILA CRH+ neurons of CRH-Cre mice, Cre-dependent AAV2/5 transduction in vivo
The assay is described as follows: c-fos / mCherry overlap in ILA after familiar animal presentation, excitatory DREADD. The format is in vivo, CRH-Cre mice. The note with it: CNO i.p. 30 min before familiar animal presentation; vs. saline. As for the experimental part: (§1) Mice were anesthetized using isoflurane then perfused in the heart with 10 mL saline and their brains were quickly extracted and incubated in 4% PFA overnight. After 1 h washing in PBS, 60 µm slices were prepared using a Leica VT1000S vibratome (Leica Biosystems). Unless indicated otherwise, slices were permeabilized for 2h in PBS with 0.5% Triton-X100 (T9284, Sigma-Aldrich) in PBS before being incubated overnight at 4°C with primary antibodies diluted in PBS with 0.5% Triton-X in PBS. The slices were washed in PBS for 1 h then incubated overnight at 4°C with secondary antibodies from Thermo-Fisher Scientific at a concentration of 1:500 diluted in PBS with 0.1% Triton-X. Hoechst counterstain was applied (Hoechst 33342 at 1:1000 for 30 min in PBS at RT) prior to mounting the slice using fluoromount (Sigma-Aldrich). Images were acquired using inverted confocal microscopes (Ism 900, Zeiss and SPII, Leica) or an epifluorescent microscope (Thunder, Leica). For post-hoc immunocytochemistry after patch-clamp recordings, slices were fixed for 1 h in PBS with 4% PFA and streptavidin was applied during secondary incubation. • For mRuby and GFP labelling, primary incubation was performed overnight at 4°C with rabbit anti-RFP (1:500, Rockland Antibody, #600-401-379) and chicken anti-GFP (1:1000, Aves, #GFP-1020) antibodies. […]

In the next assay the target is T2, inhibitory DREADD (Homo sapiens, UniProt P08173, A203G/Y113C).
T2 construct: host or cells: ILA CRH+ neurons of CRH-Cre mice, Cre-dependent AAV2/8 transduction in vivo
T2 sequence (P08173 1-479 Y113C/A203G): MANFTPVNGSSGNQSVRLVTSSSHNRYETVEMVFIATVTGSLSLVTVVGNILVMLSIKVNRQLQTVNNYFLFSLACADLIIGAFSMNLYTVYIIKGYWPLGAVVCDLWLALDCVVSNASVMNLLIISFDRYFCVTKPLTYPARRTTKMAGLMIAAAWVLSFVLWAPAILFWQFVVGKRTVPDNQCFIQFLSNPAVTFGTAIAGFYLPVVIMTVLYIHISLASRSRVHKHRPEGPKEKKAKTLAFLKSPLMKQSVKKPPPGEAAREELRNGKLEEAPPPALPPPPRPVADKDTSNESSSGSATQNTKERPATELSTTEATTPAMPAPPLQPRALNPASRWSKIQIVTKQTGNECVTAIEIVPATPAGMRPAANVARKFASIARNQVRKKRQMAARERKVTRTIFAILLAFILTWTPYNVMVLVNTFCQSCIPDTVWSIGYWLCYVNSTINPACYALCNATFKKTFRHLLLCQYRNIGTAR
Kind of assay: c-fos / mCherry overlap in ILA after familiar animal presentation, inhibitory DREADD. It counts as in vivo, CRH-Cre mice. The settings on record: CNO i.p. 30 min before familiar animal presentation; vs. saline. As for the experimental part: as §1

T1 sequence (P20309 whole entry Y149C/A239G): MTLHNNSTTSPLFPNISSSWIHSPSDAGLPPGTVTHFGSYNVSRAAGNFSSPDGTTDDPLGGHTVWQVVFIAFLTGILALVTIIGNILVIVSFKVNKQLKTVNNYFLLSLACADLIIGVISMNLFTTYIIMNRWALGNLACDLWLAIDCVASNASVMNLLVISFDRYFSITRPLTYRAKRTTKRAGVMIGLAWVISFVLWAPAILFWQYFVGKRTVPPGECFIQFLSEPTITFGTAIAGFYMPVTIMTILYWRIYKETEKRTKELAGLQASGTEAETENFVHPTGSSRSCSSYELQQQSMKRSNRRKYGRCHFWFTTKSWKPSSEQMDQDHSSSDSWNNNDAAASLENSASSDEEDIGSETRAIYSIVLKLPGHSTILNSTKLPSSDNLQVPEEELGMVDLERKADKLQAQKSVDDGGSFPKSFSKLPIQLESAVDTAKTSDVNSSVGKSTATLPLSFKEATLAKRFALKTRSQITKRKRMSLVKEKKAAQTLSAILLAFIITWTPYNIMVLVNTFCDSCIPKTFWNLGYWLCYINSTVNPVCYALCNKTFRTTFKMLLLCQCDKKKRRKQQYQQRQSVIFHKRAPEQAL

On to `C[N+]1([O-])CCN(C2=Nc3cc(Cl)ccc3Nc3ccccc32)CC1` [CNO, clozapine N-oxide], for which the “c-fos/mCherry+ overlap in ILA” value on excitatory DREADD is “increased c-fos/mCherry+ overlap”. Moreover, the “c-fos/mCherry+ cells in ILA” value on inhibitory DREADD is reported as “less c-fos/mCherry+ cells compared to the saline control”.
